Measurements from patent publication US20250154140A1 (Sunnybrook Research Institute, priority 2022, published 2025).

Columns and labels:
BAX = BAX (Homo sapiens, UniProt Q07812); experiment: Liposome membrane permeabilization / dye release assay (cBID activated BAX); type: biochemical; design: made in house; host or cells: Escherichia coli BL21-AI; settings: 20 nM cBID and 100 nM BAX
Experimental: The preparation of liposomes and dye-release assays were as previously described (Kale et al., 2014). The composition of liposomes, in molar %, to make a 1 mg/mL lipid film are as follows: 48% phosphatidylcholine, 28% phosphatidylethanolamine, 10% phosphatidylinositol, 10% dioleoyl phosphatidylserine, and 4% tetraoleoyl cardiolipin. Each lipid (dissolved in chloroform) was mixed in a glass test tube. Using a steady stream of nitrogen pointed inside the test tube, the tube is rotated to create a film of lipids on the glass. The tube is filled with nitrogen and covered with parafilm. The dried lipid film is then stored at −20° C. until needed. […]
The choice of ANTS/DPX or Terbium:DPA liposomes for dye release assays was dictated by the properties of those compounds being assayed for BAX inhibitory activity, that affected the fluorescence of ANTS or Terbium.
For ANTS/DPX dye release assays: ANTS (fluorophore; excitation 355 nm, emission 520 nm) and DPX (collisional quencher) are encapsulated in reconstituted liposomes. When the membrane is permeabilized, ANTS and DPX diffuse to the outside of the liposomes, decreasing the effective concentration DPX and therefore quenching by […] is decreased and ANTS fluorescence increases. […] The plate was then read a third time to assess the fluorescence of ANTS upon full dissociation of liposomes in each well (F100). […]

FL EGFR = biological target: T1, FL EGFR (Homo sapiens, UniProt P00533); experiment: EGFR kinase assay (ADP-Glo); type: biochemical
T1 construct: kinase domain of EGFR (amino acids 695-1210); purchased Promega V3831
Experimental: A peptide containing the kinase domain of EGFR (amino acids 695-1210) was used to assess the inhibitory potency of the inhibitors. The ADP-Glo kinase assay (Promega V9101), and the EGFR kinase enzyme (Promega V3831) were used according to the supplier's instructions. Briefly, […] reactions were assembled in wells of a 384 well plate as follows: 5 μL of the kinase reaction, 5 μL of the ADP depletion reagent, and 10 μL of the luciferase reagent. For the kinase reaction: 1 μL of the inhibitor (dissolved in DMSO) was mixed with 2 μL EGFR peptide ([…]), 1 μL of a poly Glu4Tyr1 peptide (0.2 μg/μL), 1 μL reaction buffer, and 1 μL of ATP (final concentration of 5 μM). The kinase reaction was incubated at room temperature for 1 hour. 5 μL of the ATP depletion/kinase terminating reagent was mixed into each well and incubated at room temperature for 40 minutes. 10 μL of the kinase detection reagent containing luciferase was mixed into each well and incubated at room temperature for 30 minutes for bioluminescent detection of ADP produced from the kinase reaction in step 1. Bioluminescent signal was detected in a Tecan Safire^2 with a black plug covering the excitation filter, and an empty emission filter. The integration time was increased to […] to detect enough luminescence per reading.

T1 sequence (P00533 695-1210): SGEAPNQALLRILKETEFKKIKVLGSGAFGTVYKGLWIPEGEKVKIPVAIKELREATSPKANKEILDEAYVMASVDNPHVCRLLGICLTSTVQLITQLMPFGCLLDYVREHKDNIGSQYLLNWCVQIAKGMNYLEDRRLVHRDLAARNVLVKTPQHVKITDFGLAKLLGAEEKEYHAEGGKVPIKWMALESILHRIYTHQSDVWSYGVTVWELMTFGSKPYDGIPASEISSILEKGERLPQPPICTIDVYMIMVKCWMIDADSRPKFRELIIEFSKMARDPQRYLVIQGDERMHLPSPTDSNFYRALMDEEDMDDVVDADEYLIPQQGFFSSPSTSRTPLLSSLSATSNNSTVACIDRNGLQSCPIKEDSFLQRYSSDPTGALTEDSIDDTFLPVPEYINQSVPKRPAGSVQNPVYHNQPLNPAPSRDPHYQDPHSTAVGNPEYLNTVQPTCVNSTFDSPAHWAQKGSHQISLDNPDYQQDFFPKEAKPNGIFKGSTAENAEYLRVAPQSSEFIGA
BAX, sequence (Q07812 whole entry): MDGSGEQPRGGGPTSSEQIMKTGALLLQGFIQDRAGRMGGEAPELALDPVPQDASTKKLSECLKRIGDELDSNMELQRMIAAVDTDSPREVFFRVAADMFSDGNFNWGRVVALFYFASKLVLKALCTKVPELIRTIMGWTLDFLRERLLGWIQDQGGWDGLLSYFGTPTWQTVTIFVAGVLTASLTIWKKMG

Structure (SMILES)	BAX inhibitory activity, cBID activated BAX mediated liposome permeabilization (BAX)	kinase inhibitory activity (FL EGFR; at or below 10 uM)	Hill Slope (FL EGFR; FL EGFR)
COc1cc2ccnc(Nc3ccc(F)c(Cl)c3)c2cc1NC(=O)CCCN1CCCCC1 [Compound I-1, N-(1-((3-chloro-4-fluorophenyl)amino)-6-methoxyisoquinolin-7-yl)-4-(piperidin-1-yl)butanamide]	retained BAX inhibitory activity equivalent to comparative compound dacomitinib	no appreciable kinase inhibitory activity	
COc1cc2ncnc(Nc3ccc(F)c(Cl)c3)c2cc1NC(=O)/C=C/CN1CCCCC1 [Dacomitinib, reference compound]	identified in a screen for compounds that inhibit		−1.3
